Values quoted from earlier work in patent publication US20050171131A1, “Diaminopyrimidine derivatives as growth hormone secrectgogue receptor (GHS-R) antagonists” (priority 2003, published 2005).
Non-standard residues stand in square brackets, D forms with d. No end group written: not given here.

[1] = repeated administration, ob/ob mice

## H-H[dW][dK]W[dF]K [[D-Lys-3]-GHRP]
Lean mice, mice with diet induced obesity, ob/ob obese mice
  energy intake: decrease energy intake
mice
  rate of gastric emptying: reduced the rate of gastric emptying
[1]
  body weight: decreased body weight
  glycemic control: improved glycemic control
